Laboratory results taken from patent US9808434B2, “Compound for treating cancer and diabetes” (CITY OF HOPE, priority 2011, dated 2017).
Entries after “also recorded” stand apart in the source; their conditions may differ.

Tests used:
3T3-L1 cells = assay: Intracellular triglyceride contents, AdipoRed Assay; assay type: cell-based, mouse; settings: 7 days in DM + compound
Method: Intracellular triglyceride contents were measured using AdipoRed Assay™ and the results were shown in relative fluorescence units (RFU) in FIG. 5.
3T3-L1 preadipocytes cells were treated with differentiating media (DM) with COH-SR4 (1 μM, 3 μM, or 5 μM) or without for 7 days. […] As used in FIG. 9C, U=undifferentiated, D=differentiated with cocktail media.

HL-60 cells [1] = assay: HL-60 apoptosis, Annexin V-PI double staining; assay type: cell-based, human; settings: 3 μM, 48 hours
Method: HL-60 (5×10^5) cells were incubated with a test compound (COH-SR4 or COH-SR9), ATRA, or nothing (Control) for 48 hours, washed and harvested. The cells were then fixed and double stained with Annexin V-FITC and propodium iodide (PI) and analyzed by flow cytometry. Conjugation of Annexin V and PI staining was used to identify apoptosis cells (early stage and late stage), normal/viable cells and necrotic cells. The percentage distribution of normal/viable (R3, lower left quadrant), early apoptotic (R4, lower right quadrant), late apoptotic (R2, upper right quadrant) and necrotic cells (R1, upper left quadrant) was calculated using Summit software. The percentages of apoptotic cells after treatment with various doses of each compound are shown in FIGS. 16A-H. Both COH-SR4 and COH-SR9 treatment of HL-60 cells increased the number of early apoptotic and late apoptotic cells in a dose-dependent manner compared with untreated cells. At 3 μM, overall apoptotic cells were ˜60% and 40% for COH-SR4 and COHSR9, respectively.

HL-60 cells [2] = assay: HL-60 apoptosis markers (DNA ladder, DiOC6(3), caspases, cytochrome c, PARP); assay type: cell-based, human; settings: for DiOC6(3) fluorescence (mitochondrial depolarization): 4 hours; for cytochrome c release and PARP: 24 hours; for cytochrome c release and PARP / caspase 3/7 and caspase 9 activity: 0.5-3 μM; for caspase 3/7 and caspase 9 activity: 48 hours; for DNA fragmentation (DNA ladder): agarose gel
Method: DNA was stained with ethidium bromide after electrophoresis on 1.5% agarose gel and then visualized under UV light.
To test whether mitochondrial membrane disruption was involved in the apoptotic effects of COH-SR4 and COH-SR9, fluorescent cationic lipophilic dye DiOC6(3) was used and monitored using flow cytometry. HL-60 cells were exposed to various concentrations of COH-SR4 or COH-SR9 for 4 hours. After incubation, cells were rinsed and stained with the cationic fluorescent dye DiOC6(3) and then the overall fluorescence was analyzed by flow cytometry. […] Reduction of the fluorescence intensity of DiOC6(3) is indicative of the cells undergoing mitochondrial depolarization and loss of Δψmt. This effect, which has been commonly observed with other anticancer drugs irrespective of the cell type, generally defines an early but already irreversible stage of apoptosis.
HL-60 (2.5×10^4) cells were seeded into 96-well plates and incubated with a test compound (COH-SR4 or COH-SR9) at various concentrations (0.5˜3 μM) for 48 hours, then caspase-3/7 or caspase-9 activity was measured with the Caspase Glo kit (Promega), respectively. Data are expressed as mean±SE from 3 independent experiments (FIG. 18A), “*” in the figure means p<0.05 when compared to the untreated control.
Treatment of COH-SR compounds also triggered release of cytochrome c (14 kDa) into the cytoplasm and cleavage of full length PARP (116 kDa) into the 89 kDa fragment, all hallmarks of cells undergoing apoptosis (FIG. 18B). HL-60 cells were treated with COH-SR4 or COH-SR9 at various concentrations (0.5 μM˜3 μM) or nothing for 24 hours. Cytochrome c (14 kDa) and cleavage of full length PARP (116 kDa) into the 89 kDa fragment were analyzed in untreated HL-60 cells and HL-60 cells treated with COH-SR4 or COH-SR9 by Western blot. Numbers below each blot represent fold increase in protein expression relative to the control as quantified by densitometry and calculated with reference to β-actin as an internal standard.

[3] = system: NCI-60 human tumor cell lines; assay: NCI-60 DTP Human Tumor Cell Line Drug Screening; assay type: cell-based; settings: leukemia, NSCLC, colon, CNS, melanoma, ovarian, renal, prostate, breast lines
From the text: Moreover, preliminary data from the NCI-60 DTP Human Tumor Cell Line Drug Screening (http://dtp.nci.nih.gov/branches/btb/ivclsp.html) further confirmed the observations on these COH-SR compounds. […] A value of 100 meant no growth inhibition. A value of 20 meant 80% growth inhibition. A value of 0 meant no net growth over the course of the experiment. A value of −40 meant 40% lethality. A value of −100 meant all cells were dead.

PBT003 = assay: Glioma ATP viability assay, PBT003; assay type: cell-based; settings: Table 1; 72 hours
Method: (§1) Cells of each cell line (U251, U87, PBT-017, PBT018, PBT003 and PBT028) were treated with various concentrations (0˜100 μM) of COH-SR4 for 72 hours. Cell viabilities were determined by ATP viability assays. Data were represented as a ratio to vehicle (DMSO) control, and plotted as mean±SEM (n=12) obtained from 2˜3 experiments (FIG. 34A).
as §1, with “(U87, U251,” for “(U251, U87, PBT-017, PBT018,”, “PVT-017)” for “PBT028)”, “2-3” for “2˜3”, “34B).” for “34A).”

PBT-017 glioma cells = assay: Apoptosis of PBT-017 glioma cells, cell counts; assay type: cell-based; settings: 2 or 10 μM, 4 days
Method: PBT-017 glioma cells were incubated with nothing (control), DMSO, and COH-SR4 at 2 μM or 10 μM for 4 days.

For `O=C(Nc1cc(Cl)cc(Cl)c1)Nc1cc(Cl)cc(Cl)c1` [COH-SR4, 1,3-bis(3,5-dichlorophenyl) urea], the “intracellular triglyceride contents (AdipoRed Assay)” value (3T3-L1 cells) was “decreased intracellular triglyceride contents; also recorded: dose-dependently reduced”, the overall apoptotic cells (HL-60 cells [1]) was roughly 60% and the “DiOC6(3) fluorescence (mitochondrial depolarization)” value (HL-60 cells [2]) was “decreased overall DiOC6(3) fluorescent intensity”. The “cytochrome c release and PARP” value (HL-60 cells [2]) was “release of cytochrome c into the cytoplasm and PARP enzyme activation”, the “caspase 3/7 and caspase 9 activity” value (HL-60 cells [2]) was “higher caspase 3/7 and caspase 9 activity” and the “DNA fragmentation (DNA ladder)” value (HL-60 cells [2]) was “dose-dependent DNA fragmentation”. For the same compound, the “activity in NCI-60 screening” value [3] was “active against”, the IC50 (PBT003) was 1.5 µM and the “fraction of apoptotic cells” value (PBT-017 glioma cells) was “increased the fraction of apoptotic cells”.
With `Cc1c(Cl)cc(NC(=O)Nc2cc(Cl)cc(Cl)c2)c(O)c1Cl` [COH-SR9, 1-(3,5-dichlorophenyl)-3-(3,5-dichloro-2-hydroxy-4-methyphenyl) urea] the overall apoptotic cells (HL-60 cells [1]) was 40%, the “DiOC6(3) fluorescence (mitochondrial depolarization)” value (HL-60 cells [2]) was “decreased overall DiOC6(3) fluorescent intensity” and the “cytochrome c release and PARP” value (HL-60 cells [2]) was “release of cytochrome c into the cytoplasm and PARP enzyme activation”. The “caspase 3/7 and caspase 9 activity” value (HL-60 cells [2]) was “higher caspase 3/7 and caspase 9 activity”, the “DNA fragmentation (DNA ladder)” value (HL-60 cells [2]) was “dose-dependent DNA fragmentation” and the “activity in NCI-60 screening” value [3] was “active against”.
